Assay results published in PMC10989010, “A panel of janus kinase inhibitors identified with anti-inflammatory effects protect mice from lethal influenza virus infection” (Antimicrobial Agents and Chemotherapy, 2024).
Where a name gives a salt, the structure may show the parent alone.

Assays:
[1] = tested on: TNF-α, RANTES, IP-10, IL-10, MIP-1α, IL-8, MCP-1, and IL-6; assay: ELISA of pro-inflammatory cytokines and chemokines in BALF of infected mice; type: in vivo; conditions: 300 TCID50; 20 mg/kg/d; day 7 p.i.; versus placebo
Experimental: Mouse IL-10 (Cat. No. 431414), IL-6 (Cat. No. 431304), and TNF-α (Cat. No. 430901) ELISA kits were obtained from BioLegend (San Diego, USA). Mouse IL-8 (CME0008), MCP-1 (CME0046), and IP-10 (CME0051) ELISA kits were purchased from 4A Biotech (Beijing, China). Mouse CCL3/MIP-1α (EK261/2-96) ELISA kit was bought from Multi Sciences (Hangzhou, China). Mouse CCL5/RANTES (BSEM-048–96T) ELISA kit was obtained from Biosharp (Hefei, China). The ELISA was conducted by following the manufacturer’s instructions.

PR8 virus = assay: Neutralization assay of mouse sera; type: in vivo, BALB/c mice; conditions: for neutralizing antibody titer: 50 TCID50 PR8, 20 mg/kg
Experimental: The neutralization assay was performed to determine the neutralizing titers of sera obtained from mice infected with influenza virus. The procedure involved diluting the sera and subsequently heat-inactivating it at 56℃ for 30 minutes, followed by its combination with 100 TCID50 PR8 virus and incubation at 37℃ for 1 hour. The mixture was added to pre-seeded MDCK cells and incubated at 37℃ for 1 hour. Subsequently, the medium was replaced with fresh DMEM and further cultured at 37℃ for 24 hours. Virus production in the supernatant was quantified by assessing virus neuraminidase activity on a black opaque 96-well plate (PerkinElmer, 6005270) using a substrate of 20 µM 2'-(4-methylumbelliferyl)-α-D-N-acetylneuraminic acid (MUNANA, Sigma, M8639) dissolved in MES solution [33 mmol/L 2-(N-morpholino) ethanesulfonic acid and 4 mmol/L CaCl2, pH = 6.5]. The reaction mixture was then incubated at 37℃ for an additional period of 2 hours. The reaction was terminated by the addition of a stop solution (0.14 mol/L NaOH in 83% ethanol). Fluorescence intensity was measured using multimode plate readers (Varioskan Lux, Thermoscientific, USA) with an excitation wavelength of 355 nm and an emission wavelength of 485 nm. The relative virus production was determined based on the fluorescence intensity, which correlated to the cleavage of MUNANA by viral neuraminidase. The serum neutralization titer, representing the dilution fold of serum required to achieve 50% virus neutralization, was determined using Graphpad software ([47]).

IP-10 = assay: cells; type: cell-based, human; conditions: Homo sapiens, U-937, 72 h, read-out: IC50 IP-10
[2] = stated as reason for selection; no test or reference printed; cited from earlier work
MCP1 = assay: cells; type: cell-based, human; conditions: Homo sapiens, U-937, 72 h, read-out: IC50 MCP1

With `CNS(=O)(=O)C[C@H]1CC[C@H](N(C)c2ncnc3[nH]ccc23)CC1` [Oclacitinib maleate] the “production of all eight cytokines and chemokines (TNF-α, RANTES, IP-10, IL-10, MIP-1α, IL-8, MCP-1, IL-6) in BALF” value [1] was “significantly reduced”, the “change in neutralization antibody titers compared to untreated mice” value (PR8 virus; 14 dpi) was “slight decrease” and the “change in neutralization antibody titers compared to untreated mice” value (PR8 virus; 21 dpi) was “no difference”. The neutralizing antibody titer (PR8 virus; 7 dpi) was 177, the neutralizing antibody titer (PR8 virus; 14 dpi) was 690 and the neutralizing antibody titer (PR8 virus; 21 dpi) was 1,087. For the same molecule, the IC50 (IP-10) was 180 nM, the water solubility [2] was “high water solubility” and the IC50 (MCP1) was 190 nM.
